Measurements published in patent US5696089A, “Histidine substituted growth hormone releasing factor analogs” (Roche Vitamins Inc., priority 1995, dated 1997).
Where a SMILES comes first, the peptide text is derived from it. Where no end group is shown, it is not given here. The star is where a group is joined. Desaminohistidyl = O=C(CCc1c[nH]cn1)*

Tests used:
rat pituitary cells = assay type: cell-based
Experimental: The biological activity of the novel peptides were compared with that of a synthetic standard of the natural sequence of GRF(1-44)-NH2 which was isolated from a human pancreatic tumor of an individual suffering from acromegaly (Salk Institute standard hp-GRF-NH2 (NL-A-10)). The assay for biological activity, which is based on the ability to stimulate production of growth hormone in rat pituitary cells in tissue culture, was performed in the following manner. Pituitaries from 30-40 male Sprague-Dawley rats (175 g) were removed aseptically after decapitation. The anterior lobes were collected, washed 3 times in sterile Hepes buffer (0.025M)(pH 7.35) and dispersed at 37° C. in 20-30 ml Hepes buffer (pH 7.35) containing collagenasa (4 mg per ml) and Dispase (Protease grande II, 2 mg per ml). After gentle 80 min. vortexing and trituration by Pasteur pipette, the dispersed cells were separated by centrifugation (150×g, 4 min.) and re-suspended in Hepes buffer containing neuraminidase (4 μg/ml), and 200 μg/ml ethylenediaminetetraacetic acid (EDTA) disodium salt pH 7.35, for 10 min. The cells were washed twice with plating medium and plated on multiwell-plates (1.5×10^5 cells per ml) using the following defined medium: F-12/DMEM/BGJ(6:3:1) (Gibco: 430-1700/430-1600/320-2591) with 2 g BSA/1., 2.38 g Hepes/1., 50 mg Gentamycin/1 (Schering Co.). The medium in each well was supplemented either with the novel peptide or natural GRF(1-44)-NH2 at concentrations ranging from 3.1 to 200 fmol. per ml. of medium. Control wells contained no supplement. Plating was done with this medium added with 2% fetal calf serum to ensure rapid fixation of the cells. On the fourth day the cells were washed twice with the defined medium without fetal calf serum. Finally 900 μl of defined medium was added to each well plus 100 μl of the same medium containing each individual treatment, in triplicate. After 3 hours of incubation the medium was collected and diluted as required to conduct radioimmuno- assays (RIAs) for rat growth hormone. RIAs were conducted using Sinha's anti-murine GH immune serum and procedures according to the National Pituitary Agency using protein A to precipitate antibody antigen complex.

[1] = In vitro plasma stability by porcine plasma incubation at 37° C.; assay type: in vitro ADME; details: pooled porcine plasma, 100 μg/ml, HPLC after SEP-PAK extraction
Experimental: In vitro plasma stability of GRF analogs were determined by porcine plasma incubation at 37° C. Pooled porcine plasma was collected from control pigs and stored at -20° C. GRF analogs of interest were prepared as discussed above. The plasma was first thawed and centrifuged at 3000 rpm for 20 minutes at 4° C. The plasma was then placed in a shaker bath at a temperature of 37° C. and allowed to equilibrate for 10 minutes. GRF analogs were dissolved in water containing 0.1% TFA at a concentration of 2 μg/μl. As soon as the initial equilibration was completed, an analog was added into the plasma sample to a final concentration of 100 μg/ml. Immediately after the addition of a GRF analog, a 1 ml aliquot of plasma sample was withdrawn and acidified with 0.2 ml of 0.1M TFA/H2 O and kept at 0° C. for later solid phase extraction. The remaining plasma samples were incubated in the water bath and 1 ml aliquots were withdrawn at different time periods and acidified by the same procedure described above.
Plasma samples were extracted with SEP-PAK octadecyl columns (Waters Associates). The column cartridge was washed with 2 ml 80% acetic acid followed by 4 ml of 0.01M TFA. After the plasma sample was loaded, the column was washed with 3 ml of 0.1M TFA to remove the excess unbound biological material. The solvent remaining in the cartridges was forced out by two passes of air from a 10 ml syringe. The bound material was then eluted with 80% acetic acid and 3 ml eluate was collected for chromatographic analysis. Two high performance liquid chromatography systems were used. System A: Instrumentation--Perkin-Elmer Series 4 liquid chromatography microprocessor-controlled solvent delivery system, Waters intelligent sample processor (WISP) model 710 (Waters Associates), and a Hewlett-Packard 1040M Diode Assay Detection System. Column--Delta Pak C18, 3.5×150 mm, 5 μm spherical (Nihon Waters Ltd.). Mobile phase-(A) 0.1% TFA in H2 O, (B) 0.1% TFA in 95% acetonitrile and 5% H2 O. Gradient was 34-50% (B) in 60 minutes, flow rate 1 ml/minute, and the detection was at 215 nm. System B: Instrumentation--Waters 600 multi-solvent delivery system, WISP model 712 and LDC spectromonitor III. Column--Vydac 201TP54, C18 4.6×250 mm, 10 μm (The Separations Group). Mobile phase--same as in System A. Gradient max 30% (B) isocratic for 10 minutes, followed by 30-50% (B) gradient for 60 minutes, flow rate was 1 ml/minute, and the detection was at 215 nm. Amino acid analysis was done as described above. Results of plasma half life are found in Table 2.

Compound	Half Life (t1/2) [1] [min]	Potency of GRF Analogs Relative to GRF(1-44)-NH2 (rat pituitary cells)
CC[C@H](C)[C@H](NC(=O)[C@H](C)NC(=O)[C@H](CC(=O)O)NC(=O)[C@H](C)NC(=O)[C@@H](N)Cc1ccc(O)cc1)C(=O)N[C@@H](Cc1ccccc1)C(=O)N[C@H](C(=O)N[C@@H](CC(N)=O)C(=O)N[C@@H](CO)C(=O)N[C@@H](Cc1ccc(O)cc1)C(=O)N[C@@H](CCCNC(=N)N)C(=O)N[C@@H](CCCCN)C(=O)N[C@H](C(=O)N[C@@H](CC(C)C)C(=O)NCC(=O)N[C@@H](CCC(N)=O)C(=O)N[C@@H](CC(C)C)C(=O)N[C@@H](CO)C(=O)N[C@@H](C)C(=O)N[C@@H](CCCNC(=N)N)C(=O)N[C@@H](CCCCN)C(=O)N[C@@H](CC(C)C)C(=O)N[C@@H](CC(C)C)C(=O)N[C@@H](CCC(N)=O)C(=O)N[C@@H](CC(=O)O)C(=O)N[C@H](C(=O)N[C@@H](CCSC)C(=O)N[C@@H](CO)C(=O)N[C@@H](CCCNC(=N)N)C(=O)N[C@@H](CCC(N)=O)C(=O)N[C@@H](CCC(N)=O)C(=O)NCC(=O)N[C@@H](CCC(=O)O)C(=O)N[C@@H](CO)C(=O)N[C@@H](CC(N)=O)C(=O)N[C@@H](CCC(N)=O)C(=O)N[C@@H](CCC(=O)O)C(=O)N[C@@H](CCCNC(=N)N)C(=O)NCC(=O)N[C@@H](C)C(=O)N[C@@H](CCCNC(=N)N)C(=O)N[C@@H](C)C(=O)N[C@@H](CCCNC(=N)N)C(=O)N[C@@H](CC(C)C)C(N)=O)[C@@H](C)CC)C(C)C)[C@@H](C)O [GRF(1-44)-NH2, reference compound]	–	1.00
CC[C@H](C)[C@H](NC(=O)[C@H](C)NC(=O)[C@H](CC(=O)O)NC(=O)[C@@H](NC(=O)CCc1c[nH]cn1)C(C)C)C(=O)N[C@@H](Cc1ccccc1)C(=O)N[C@H](C(=O)N[C@@H](CC(N)=O)C(=O)N[C@@H](CO)C(=O)N[C@@H](Cc1ccc(O)cc1)C(=O)N[C@@H](CCCNC(=N)N)C(=O)N[C@@H](CCCCN)C(=O)N[C@H](C(=O)N[C@@H](CC(C)C)C(=O)N[C@@H](C)C(=O)N[C@@H](CCC(N)=O)C(=O)N[C@@H](CC(C)C)C(=O)N[C@@H](CO)C(=O)N[C@@H](C)C(=O)N[C@@H](CCCNC(=N)N)C(=O)N[C@@H](CCCCN)C(=O)N[C@@H](CC(C)C)C(=O)N[C@@H](CC(C)C)C(=O)N[C@@H](CCC(N)=O)C(=O)N[C@@H](CC(=O)O)C(=O)N[C@H](C(=O)N[C@@H](CCSC)C(=O)N[C@@H](CO)C(=O)N[C@@H](CCCNC(=N)N)C(N)=O)[C@@H](C)CC)C(C)C)[C@@H](C)O [[desNH2 His^1,Val^2,Ala^15]-GRF(1-29)-NH2] (Desaminohistidyl-VDAIFTNSYRKVLAQLSARKLLQDIMSR-NH2)	–	1.21
CC[C@H](C)[C@H](NC(=O)[C@H](C)NC(=O)[C@H](CC(=O)O)NC(=O)[C@H](C)NC(=O)[C@@H](N)Cc1ccc(O)cc1)C(=O)N[C@@H](Cc1ccccc1)C(=O)N[C@H](C(=O)N[C@@H](CC(N)=O)C(=O)N[C@@H](CO)C(=O)N[C@@H](Cc1ccc(O)cc1)C(=O)N[C@@H](CCCNC(=N)N)C(=O)N[C@@H](CCCCN)C(=O)N[C@H](C(=O)N[C@@H](CC(C)C)C(=O)NCC(=O)N[C@@H](CCC(N)=O)C(=O)N[C@@H](CC(C)C)C(=O)N[C@@H](CO)C(=O)N[C@@H](C)C(=O)N[C@@H](CCCNC(=N)N)C(=O)N[C@@H](CCCCN)C(=O)N[C@@H](CC(C)C)C(=O)N[C@@H](CC(C)C)C(=O)N[C@@H](CCC(N)=O)C(=O)N[C@@H](CC(=O)O)C(=O)N[C@H](C(=O)N[C@@H](CCSC)C(=O)N[C@@H](CO)C(=O)N[C@@H](CCCNC(=N)N)C(N)=O)[C@@H](C)CC)C(C)C)[C@@H](C)O [GRF(1-29)-NH2, reference compound]	13	0.71
HIDAIFTNSYRKVLAQLSARKLLQDIMSR-NH2 [[His^1,Ile^2,Ala^15]-GRF(1-29)-NH2]	–	1.24

More lines, main results first:

Half Life (t1/2) [1] [min]	Compound	Potency of GRF Analogs Relative to GRF(1-44)-NH2 (rat pituitary cells)
70	YVDAIFTNSYRKVLAQLSARKLLQDILSRQQG [[Val^2,Ala^15,Leu^27]-GRF(1-32)-OH]	–
17	YADAIFTNSYRKVLAQLSARKLLQDIMSR-NH2 [[Ala^15]-GRF(1-29)-NH2, reference compound]	–
60	HVDAIFTNSYRKVLAQLSARKLLQDIMSR-NH2 [[His^1,Val^2,Ala^15]-GRF(1-29)-NH2]	2.58
60	HVDAIFTNSYRKVLAQLSARKLLQDILSRQQG [[His^1,Val^2,Ala^15,Leu^27]-GRF(1-32)-OH]	2.40
